The values that follow come from article PMC8620390, “New Multi-Targeted Antiproliferative Agents: Design and Synthesis of IC261-Based Oxindoles as Potential Tubulin, CK1 and EGFR Inhibitors” (Pharmaceuticals, 2021).

Molecules are shown by their SMILES. Several values for one entry are separate records, joined by “and”; a condition that tells them apart may be missing. Equal entries are not always repeated. Marks after values point to notes of the source that are not given here.

Series [1] has as its system COLO-205. Briefly: Two-dose antiproliferative screening, SRB assay, COLO-205. The series is classed as cell-based, human. The note with it: triplicates; for Growth Inhibition (%) COLO-205 1 μM Average: 72 h; for inhibition at 1 µM / inhibition at 10 µM: Homo sapiens, COLO 205, 72 h; for inhibition at 1 µM: read-out: Growth Inhibition (%) COLO-205 1 μM Average; for inhibition at 10 µM: read-out: Growth Inhibition (%) COLO-205 10 μM Average. The procedure: MCF-7(breast adenocarcinoma), PC-3 (prostate cancer) and COLO-205 (colorectal cancer) were obtained from Nawah Scientific inc., (Mokatam, Cairo, Egypt). Cells were maintained in Dulbecco’s Modified Eagle’s media (DMEM media) supplemented with […] of streptomycin, 100 units/mL of penicillin and 10% of heat-inactivated fetal bovine serum in humidified, 5% (v/v) CO2 atmosphere at 37 °C.
Cell viability was assessed by the sulforhodamine B (SRB) assay. Aliquots of cell suspension (5 × 10^3 cells, 100 μL) were transferred into 96 well plates and incubated in complete media for 24 h. Cells were treated with another aliquot media (100 μL) containing compounds 3a–f, 4a–f, 6a–f, 7a–f, 9a–b at concentrations of 1 and 10 μM). After 72 h of drug exposure, cells were fixed by replacing media with trichloroacetic acid (TCA, 10%, 150 μL) and incubated at 4 °C for 1 h. The TCA solution was removed, and the cells were washed five times with distilled water. Aliquots of SRB solution (0.4%w/v, 70 μL) were added and incubated in a dark place at room temperature for 10 min. Plates were washed three times with 1% acetic acid and allowed to air dry overnight. Then, a solution of TRIS base and TRIS HCl (TRIS buffer, 10 mM, 150 μL) was added to dissolve protein bound SRB stain. The absorbance was measured at 540 nm using BMGLABTECH®–FLUOstar omega micro-plate reader (Ortenberg, Germany).
For orientation: Sulforhodamine B stains cellular protein and so reports cell mass.

A further series addresses T1, EGFR (Homo sapiens, UniProt P00533).
T1 construct: enough purified recombinant EGFR enzyme, EGFR substrate, ATP, and kinase assay buffer; purchased Sigma Aldrich
Briefly: EGFR kinase assay kit (Kinase-Glo MAX). It counts as biochemical. The conditions noted are these: EGFR-TK kinase kit; read-out: EGFR Inhibition IC50 (converted). How it is done: The EGFR Kinase Assay Kit (Sigma Aldrich, St. Louis, […], USA) is designed to measure EGFR Kinase activity for screening and profiling applications using Kinase-Glo® MAX as a detection reagent. The EGFR Kinase Assay Kit (Sigma Aldrich, St. Louis, […], USA) comes in a convenient 96-well format, with enough purified recombinant EGFR enzyme, EGFR substrate, ATP, and kinase assay buffer for 100 enzyme reactions. The master mixture (25 μL per well) was prepared out of Kinase assay buffer (6 μL), ATP (500 μM, 1 μL), PTK substrate (50×, 1 μL) and water (17 μL) and added to each well. Inhibitor solution was made by dissolving 4b in a liquid labelled” inhibitor buffer”. An inhibitor solution (5 μL) was then added to each well, labelled as “Test Inhibitor”. For “Positive Control” and “Blank”, add 5 μL inhibitor buffer). EGFR was thawed on ice. Its tube was spun briefly to recover the full content of the tube. The enzyme was diluted with 1× Kinase assay buffer enzyme to 1 ng/μL. The reaction was initiated by adding 20 μL of diluted EGFR enzyme to the wells designated “Positive Control” and “Test Inhibitor Control”. The plate was incubated at 30 °C for 40 min. After the 40-min reaction, the Kinase-Glo Max (50 μL) reagent was added to each well. The plate was covered with aluminum foil, incubated at room temperature for 15 min and the luminescence was measured using the microplate reader.
A general note: Kinase-Glo reads ATP consumption through a luciferase reaction.

A further series concerns Pgp. The experiment in a line: Pgp ELISA assay in MCF-7 cells. The series is classed as in vitro ADME, human. Background: ELISA stands for enzyme-linked immunosorbent assay.
For another series, the system named is Bax. Briefly: Bax expression level in COLO-205 (qRT-PCR). The series is classed as cell-based, human. The conditions noted are these: COLO-205, 4b 2.34 μM, vs DMSO-treated control. How it is done: (§1) qRT-PCR was used to assess the […] expression of Bax and Bcl-2. The High Pure RNA Isolation Kit (RNeasy extraction kit, up to 1 × 10^7 cells) was used to isolate total RNA from COLO-205 cells according to the manufacturer's instructions. A Transcriptor First Strand c-DNA Synthesis Kit was used to produce c-DNA from RNA according to the manufacturer's instructions; 10 μL total RNA was used for amplification Specific primers for Bax, Bcl-2, and P53 were used in PCR experiments. A LightCycler 480 PCR Master Mix was used to set up amplification reactions with a reaction volume of 20 uL. TaqMan probes and PCR primers were created and tuned. PCR Primer sequences were as following (Bax [NT], Bax [NT]. Bcl-2 [NT], and Bcl-2 […] dissociation assay was performed to evaluate any problem related to primer unspecific annealing or any secondary structure formation. Data were analyzed using SDS analysis software.

Series [2] deals with COLO-205. The experiment in a line: Annexin V-FITC/PI apoptosis assay. The series is classed as cell-based, human. How it is done: COLO-205 Cells were placed in a 6-well plate at 1 × 10^5 concentration of cells/well then incubated for 24 h. COLO-205 Cells were treated with compound 4b (2.34 μM) for 24 h. The cells were then harvested, washed with PBS and stained with Annexin V-FITC and PI in binding buffer ([…] at pH 7.4) for 15 min at room temperature in the dark then analyzed by the flow cytometer.

The test system of series [3] is COLO-205. Briefly: Cell cycle analysis, DNA flow cytometry (PI). It counts as cell-based, human. The procedure: COLO-205 Cells were placed in a 6-well plate at 1 × 10^5 concentration of cells/well then incubated for 24 h. COLO-205 Cells were treated with compound 4b (2.34 μM) for 24 h. Cells were then collected and fixed for 12 h using ice cold 70% ethanol at 4 °C. Ethanol was then removed and cells were washed with cold phosphate buffer saline (PBS, 0.5 mL) and incubated for 30 min at 37 °C. The cells were stained for 30 min with propidium iodide in the dark. A flow cytometer was used to detect DNA content.

Another series deals with Bcl-2. The experiment in a line: Bcl-2 expression level in COLO-205 (qRT-PCR). The series is classed as cell-based, human. The procedure: as §1
Where [4] appears, read: COLO-205, 4b 2.34 μM, 24 h, annexin V-FITC.

T1 sequence (P00533 25-1210): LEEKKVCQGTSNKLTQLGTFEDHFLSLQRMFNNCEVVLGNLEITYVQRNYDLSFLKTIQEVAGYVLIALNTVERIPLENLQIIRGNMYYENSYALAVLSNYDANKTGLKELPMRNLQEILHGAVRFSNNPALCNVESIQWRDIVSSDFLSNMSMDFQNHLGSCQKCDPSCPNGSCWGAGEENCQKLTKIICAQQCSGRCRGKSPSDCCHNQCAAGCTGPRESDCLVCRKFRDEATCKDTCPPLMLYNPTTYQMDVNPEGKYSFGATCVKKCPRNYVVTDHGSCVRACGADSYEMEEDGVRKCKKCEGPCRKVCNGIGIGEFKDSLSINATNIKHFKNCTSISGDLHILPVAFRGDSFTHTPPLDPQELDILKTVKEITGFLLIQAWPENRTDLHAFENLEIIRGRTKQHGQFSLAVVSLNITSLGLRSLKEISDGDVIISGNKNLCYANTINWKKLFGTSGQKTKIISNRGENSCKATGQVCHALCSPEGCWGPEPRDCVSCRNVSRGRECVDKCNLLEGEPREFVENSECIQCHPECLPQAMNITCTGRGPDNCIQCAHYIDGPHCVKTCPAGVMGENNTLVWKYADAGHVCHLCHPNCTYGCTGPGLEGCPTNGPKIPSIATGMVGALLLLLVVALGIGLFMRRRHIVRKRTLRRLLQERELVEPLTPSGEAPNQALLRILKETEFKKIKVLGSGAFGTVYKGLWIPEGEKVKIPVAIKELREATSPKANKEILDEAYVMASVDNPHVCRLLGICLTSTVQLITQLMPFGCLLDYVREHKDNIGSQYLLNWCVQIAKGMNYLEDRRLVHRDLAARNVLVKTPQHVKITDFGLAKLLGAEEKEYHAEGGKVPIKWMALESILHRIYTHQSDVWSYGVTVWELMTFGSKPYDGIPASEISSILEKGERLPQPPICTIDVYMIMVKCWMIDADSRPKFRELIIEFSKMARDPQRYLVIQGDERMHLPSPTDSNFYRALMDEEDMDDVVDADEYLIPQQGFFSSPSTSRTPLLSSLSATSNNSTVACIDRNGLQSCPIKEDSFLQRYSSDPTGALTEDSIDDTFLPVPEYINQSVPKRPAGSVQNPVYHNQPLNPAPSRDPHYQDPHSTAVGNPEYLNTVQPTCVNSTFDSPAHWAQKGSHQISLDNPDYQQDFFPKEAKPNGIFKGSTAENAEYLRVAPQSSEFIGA
Method for Pgp: PgP concentration was measured using ELISA kit Cat No: MBS722065) for human PgP assay. The Pgp ELISA kit employs a competitive enzyme immunoassay technique using a polyclonal anti-Pgp antibody and a PgpHRP conjugate. The test sample and buffer were incubated together with the PgpHRP conjugate on a precoated plate for one hour. After the incubation period, the wells were decanted and washed five times. The wells were then incubated with a substrate for the HRP enzyme. The enzyme-substrate reaction product formed a blue complex. Finally, a stop solution was added to stop the reaction, which then turned the solution yellow. Color intensity was measured spectrophotometrically at 450 nm in a microplate reader. The intensity of the color was inversely proportional to the Pgp concentration, since the Pgp of the samples and the PgpHRP conjugate competed for the binding site of the anti-Pgp antibody. Because the number of sites is limited, there were fewer sites left to bind to the PgpHRP conjugate as the sample Pgp occupies more sites. A standard curve was drawn that relates the intensity of the color to the concentration of the standards. The Pgp concentration in each sample was interpolated from this standard curve.

On to `COc1cc(OC)c(/C=C2/C(=O)Nc3ccccc32)c(OC)c1` [Compound 4a, (E)-3-(2,4,6-trimethoxybenzylidene)indolin-2-one, reference compound], for which, in the series on COLO-205 [1], the “Growth Inhibition (%) COLO-205 1 μM Average” value is given as 63.60%, the inhibition at 1 µM amounted to 64% and the inhibition at 10 µM amounted to 77.5%. Further, the IC50 on EGFR is 321 nM and 340 nM.
`COc1cc(OC)c(/C=C2/C(=O)Nc3cc(Cl)ccc32)c(OC)c1` [Compound 4b, (E)-6-chloro-3-(2,4,6-trimethoxybenzylidene)indolin-2-one]: in the series with COLO-205 [1], the “Growth Inhibition (%) COLO-205 1 μM Average” value is given as 73.32%, the inhibition at 1 µM turned out to be 74% and the inhibition at 10 µM was 82.5%. Also, the “Pgp occupied by compound” value in the series on Pgp is listed as “around 35%”. Further, the “Bax expression level, fold change” value in the series on Bax was 5.104 fold and 5.10 fold. Also, in the series with COLO-205 [2] (setting [4]), the “Apoptosis Early” value is reported as 2.61%, the “Apoptosis Late” value turned out to be 21.31% and the “Apoptosis Total” value stood at 41.28%. Besides, the Necrosis with COLO-205 [2] (COLO-205, 4b 2.34 μM, 24 h, annexin V-FITC/PI) is recorded as 17.36%. The “overall effect (cytotoxic vs cytostatic)” value in the series with COLO-205 [2] (COLO-205, annexin V/PI) was “cytotoxic, rather than cytostatic”. In the series on COLO-205 [2] (COLO-205, vs DMSO control), the “early and late apoptosis, times compared to the control” value amounted to 27.81 times; the “necrosis, times compared to the control” value was determined as 11.05 times. Also, in the series with COLO-205 [3] (COLO-205, 4b 2.34 μM, 24 h), the “DNA content %G0-G1” value is given as 47.15%; the “DNA content %G2/M” value is given as 2.94 * %; the “DNA content %Pre-G1” value is 41.28% and 41.28 * %; the “DNA content %S” value worked out at 49.91%. Besides, the “increase in cells at pre-G1 phase, fold” value in the series on COLO-205 [3] (COLO-205, vs untreated control) stood at 16.99 fold. The IC50 on EGFR is 549 nM. Besides, the “Bcl-2 level, fold change” value with Bcl-2 (COLO-205, 4b 2.34 μM, vs control) is 0.242 fold and 0.24 fold. The “Bcl-2 protein level down-regulation, fold lower than untreated cells” value with Bcl-2 (COLO-205, vs untreated COLO cells) stood at 4.16 fold.

As usually defined, the inhibition is the share of the control response that was lost under treatment. What is called IC50 is the concentration that gives 50% inhibition.
